Like-named read-outs stand apart in the source and are kept apart here.
Assays:
[1] = Ex vivo biodistribution in mice bearing LNCaP tumor xenografts; parameters: species or system mouse (male NOD-scid IL2Rg^null (NSG)); settings: mouse, iv, mean ± SD
Method: (§1) All imaging and biodistribution studies used male NOD-scid IL2Rg^null (NSG) mice and conducted according to the guidelines established by the Canadian Council on Animal Care and approved by Animal Ethics Committee of the University of British Columbia. For tumor inoculations, mice were anesthetized via inhalation of 2% isoflurane in oxygen and implanted subcutaneously with 5×10^6 LNCaP cells below the left shoulder. Imaging and biodistribution studies were performed only after tumors grew to 5-8 mm in diameter.
(§2) For PET/CT imaging studies, approximately 5 MBq of the ^18F-labeled tracer was injected through the tail vein. While for ex vivo biodistribution studies, mice were injected with around 2 MBq of the ^18F-labeled tracer through the tail vein. Mice were allowed to recover and roam freely in the cages after injecting the tracer. At 45 min post-injection, imaging mouse were sedated again and positioned on the scanner. A 10 min CT scan was conducted first to allow for localization and attenuation correction for later reconstruction of PET images. A 10 min PET image was acquired following CT scan. Heating pads were used during the entire procedure to keep the mice warm and circulate the blood. At 1 h post-injection, all mice for biodistribution study were euthanized with blood drawn from heart, and all tissues of interest were collected, rinsed with PBS, blotted dry, weighed, and counted using an automated gamma counter. The uptake in each organ/tissue was normalized to the injected dose and expressed as the percentage of the injected dose per gram of tissue (% ID/g).
(§3) Representative maximum intensity projection PET images of ^18F-KLF1007-pyridine-BF3 and ^18F-KL01040 acquired at 1 h post-injection from LNCaP tumor-bearing mice is enumerated in Table 4 and shown in FIG. 1. Representative maximum intensity projection PET images of ^18F-KL01120 and ^18F-KL01130 acquired at 1 h post-injection from LNCaP tumor-bearing mice is also enumerated in Table 5 and shown in FIG. 2 (^18F-KL1120) and enumerated in Table 6 and shown in FIG. 3 (^18F-KL01130).

[2] = test system: LNCaP tumor xenografts; test: as above; parameters: species or system mouse (male NOD-scid IL2Rg^null (NSG)); settings: mean ± SD
Method: as §1, §2, §3

[3] = adrenal glands, 1 h post-injection, read-out: Adrenal Glands uptake
[4] = blood, 1 h post-injection, read-out: Blood uptake
[5] = bone, 1 h post-injection, read-out: Bone uptake
[6] = brain, 1 h post-injection, read-out: Brain uptake
[7] = fat, 1 h post-injection, read-out: Fat uptake
[8] = heart, 1 h post-injection, read-out: Heart uptake
[9] = kidneys, 1 h post-injection, read-out: Kidneys uptake
[10] = lacrimal glands, 1 h post-injection, read-out: Lacrimal Glands uptake
[11] = liver, 1 h post-injection, read-out: Liver uptake
[12] = lncap tumor, 1 h post-injection, read-out: LNCaP Tumor uptake
[13] = lungs, 1 h post-injection, read-out: Lungs uptake
[14] = muscle, 1 h post-injection, read-out: Muscle uptake
[15] = pancreas, 1 h post-injection, read-out: Pancreas uptake
[16] = salivary glands, 1 h post-injection, read-out: Salivary Glands uptake
[17] = seminal glands, 1 h post-injection, read-out: Seminal Glands uptake
[18] = small intestine, 1 h post-injection, read-out: Small Intestine uptake
[19] = spleen, 1 h post-injection, read-out: Spleen uptake
[20] = stomach, 1 h post-injection, read-out: Stomach uptake
[21] = testes, 1 h post-injection, read-out: Testes uptake
[22] = thyroid, 1 h post-injection, read-out: Thyroid uptake
[23] = 1 h Blocked (co-injection of 2-PMPA, 0.5 mg)

O=C(O)CCC[C@H](NC(=O)N[C@@H](CCCCNC(=O)[C@H](Cc1c2ccccc2cc2ccccc12)NC(=O)[C@H]1CC[C@H](CNC(=O)[C@H](CCCCNC(=O)c2ccc(F)nc2)NC(=O)CN(CC(=O)O)CC(=O)O)CC1)C(=O)O)C(=O)O [^18F-KL01040] showed a tissue uptake at 1 h [1, 3] of 1.05 ± 0.26 %ID/g, a tissue uptake at 1 h [1, 4] of 1.96 ± 0.37 %ID/g and a tissue uptake at 1 h [1, 5] of 0.6 ± 0.18 %ID/g. It also gave a tissue uptake at 1 h [1, 6] of 0.11 ± 0.08 %ID/g, a tissue uptake at 1 h [1, 7] of 0.61 ± 0.15 %ID/g and a tissue uptake at 1 h [1, 8] of 0.56 ± 0.14 %ID/g. It also gave a tissue uptake at 1 h [1, 9] of 33.2 ± 10.1 %ID/g, a tissue uptake at 1 h [1, 10] of 0.23 ± 0.06 %ID/g and a tissue uptake at 1 h [1, 11] of 0.58 ± 0.15 %ID/g. It also gave a tissue uptake at 1 h [1, 12] of 11.2 ± 2.06 %ID/g, a tissue uptake at 1 h [1, 13] of 1.56 ± 0.4 %ID/g and a tissue uptake at 1 h [1, 14] of 0.29 ± 0.06 %ID/g. It also gave a tissue uptake at 1 h [1, 15] of 0.38 ± 0.05 %ID/g, a tissue uptake at 1 h [1, 16] of 0.79 ± 0.11 %ID/g and a tissue uptake at 1 h [1, 17] of 0.26 ± 0.06 %ID/g. For the same molecule, the tissue uptake at 1 h [1, 18] was 2.54 ± 0.5 %ID/g, the tissue uptake at 1 h [1, 19] was 0.83 ± 0.41 %ID/g and the tissue uptake at 1 h [1, 20] was 0.2 ± 0.07 %ID/g. The tissue uptake at 1 h ([1]; tail, 1 h post-injection, read-out: Tail uptake) was 1.31 ± 0.41 %ID/g, the tissue uptake at 1 h [1, 21] was 0.47 ± 0.07 %ID/g and the tissue uptake at 1 h [1, 22] was 0.6 ± 0.06 %ID/g.
In the case of O=C(O)CC[C@H](NC(=O)N[C@@H](CCCCNC(=O)[C@H](Cc1c2ccccc2cc2ccccc12)NC(=O)[C@H]1CC[C@H](CNC(=O)[C@H](CCNC(=O)c2ccc(F)nc2)NC(=O)CCC(=O)N(CC(=O)O)CC(=O)O)CC1)C(=O)O)C(=O)O [^18F-KL01120], the “Tumor:Muscle uptake ratio” value [2, 23] is reported as 9.96 ± 3.13, the “Tumour:Blood uptake ratio” value [2, 23] is reported as 2.21 ± 0.46 and the “Tumour:Bone uptake ratio” value [2, 23] is reported as 8.46 ± 4.80. The “Tumour:Kidney uptake ratio” value [2, 23] was 0.45 ± 0.05, the “Tumor:Muscle uptake ratio” value ([2]; 1 h post-injection) was 6.58 ± 1.38 and the “Tumour:Blood uptake ratio” value ([2]; 1 h post-injection) was 8.41 ± 2.02. For the same molecule, the “Tumour:Bone uptake ratio” value ([2]; 1 h post-injection) was 9.31 ± 3.39, the “Tumour:Kidney uptake ratio” value ([2]; 1 h post-injection) was 0.07 ± 0.02 and the tissue uptake at 1 h ([1]; adrenal glands, 1 h Blocked (co-injection of 2-PMPA, 0.5 mg), read-out: Adrenal Glands uptake) was 0.48 ± 0.21 %ID/g. The tissue uptake at 1 h [1, 3] was 11.2 ± 4.71 %ID/g, the tissue uptake at 1 h ([1]; blood, 1 h Blocked (co-injection of 2-PMPA, 0.5 mg), read-out: Blood uptake) was 0.86 ± 0.2 %ID/g and the tissue uptake at 1 h [1, 4] was 0.71 ± 0.14 %ID/g. It also gave a tissue uptake at 1 h ([1]; bone, 1 h Blocked (co-injection of 2-PMPA, 0.5 mg), read-out: Bone uptake) of 0.35 ± 0.23 %ID/g, a tissue uptake at 1 h [1, 5] of 0.92 ± 0.46 %ID/g and a tissue uptake at 1 h ([1]; brain, 1 h Blocked (co-injection of 2-PMPA, 0.5 mg), read-out: Brain uptake) of 0.03 %ID/g. It also gave a tissue uptake at 1 h [1, 6] of 0.05 ± 0.01 %ID/g, a tissue uptake at 1 h ([1]; fat, 1 h Blocked (co-injection of 2-PMPA, 0.5 mg), read-out: Fat uptake) of 0.18 ± 0.05 %ID/g and a tissue uptake at 1 h [1, 7] of 1.57 ± 0.55 %ID/g. For the same molecule, the tissue uptake at 1 h ([1]; heart, 1 h Blocked (co-injection of 2-PMPA, 0.5 mg), read-out: Heart uptake) was 0.35 ± 0.06 %ID/g, the tissue uptake at 1 h [1, 8] was 2.9 ± 0.66 %ID/g and the tissue uptake at 1 h ([1]; kidneys, 1 h Blocked (co-injection of 2-PMPA, 0.5 mg), read-out: Kidneys uptake) was 4.29 ± 1.34 %ID/g. It also gave a tissue uptake at 1 h [1, 9] of 88.1 ± 17.4 %ID/g, a tissue uptake at 1 h ([1]; lacrimal glands, 1 h Blocked (co-injection of 2-PMPA, 0.5 mg), read-out: Lacrimal Glands uptake) of 0.07 ± 0.05 %ID/g and a tissue uptake at 1 h [1, 10] of 0.06 ± 0.03 %ID/g. For the same molecule, the tissue uptake at 1 h ([1]; large intestine, 1 h Blocked (co-injection of 2-PMPA, 0.5 mg), read-out: Large Intestine uptake) was 0.25 ± 0.1 %ID/g, the tissue uptake at 1 h ([1]; large intestine, 1 h post-injection, read-out: Large Intestine uptake) was 1.11 ± 0.42 %ID/g and the tissue uptake at 1 h ([1]; liver, 1 h Blocked (co-injection of 2-PMPA, 0.5 mg), read-out: Liver uptake) was 0.59 ± 0.1 %ID/g. For the same molecule, the tissue uptake at 1 h [1, 11] was 2.64 ± 0.57 %ID/g, the tissue uptake at 1 h ([1]; lncap tumor, 1 h Blocked (co-injection of 2-PMPA, 0.5 mg), read-out: LNCaP Tumor uptake) was 1.87 ± 0.46 %ID/g and the tissue uptake at 1 h [1, 12] was 6.21 ± 1.25 %ID/g. The tissue uptake at 1 h ([1]; lungs, 1 h Blocked (co-injection of 2-PMPA, 0.5 mg), read-out: Lungs uptake) was 0.81 ± 0.18 %ID/g, the tissue uptake at 1 h [1, 13] was 4.1 ± 0.71 %ID/g and the tissue uptake at 1 h ([1]; muscle, 1 h Blocked (co-injection of 2-PMPA, 0.5 mg), read-out: Muscle uptake) was 0.27 ± 0.18 %ID/g. For the same molecule, the tissue uptake at 1 h [1, 14] was 0.9 ± 0.2 %ID/g, the tissue uptake at 1 h ([1]; pancreas, 1 h Blocked (co-injection of 2-PMPA, 0.5 mg), read-out: Pancreas uptake) was 0.27 ± 0.07 %ID/g and the tissue uptake at 1 h [1, 15] was 2.22 ± 0.66 %ID/g. For the same molecule, the tissue uptake at 1 h ([1]; salivary glands, 1 h Blocked (co-injection of 2-PMPA, 0.5 mg), read-out: Salivary Glands uptake) was 0.35 ± 0.08 %ID/g, the tissue uptake at 1 h [1, 16] was 9.18 ± 2.36 %ID/g and the tissue uptake at 1 h ([1]; seminal gland, 1 h Blocked (co-injection of 2-PMPA, 0.5 mg), read-out: Seminal Gland uptake) was 0.76 ± 0.19 %ID/g. It also gave a tissue uptake at 1 h [1, 17] of 0.98 ± 0.42 %ID/g, a tissue uptake at 1 h ([1]; small intestine, 1 h Blocked (co-injection of 2-PMPA, 0.5 mg), read-out: Small Intestine uptake) of 1.83 ± 0.37 %ID/g and a tissue uptake at 1 h [1, 18] of 4.51 ± 0.87 %ID/g. It also gave a tissue uptake at 1 h ([1]; spleen, 1 h Blocked (co-injection of 2-PMPA, 0.5 mg), read-out: Spleen uptake) of 0.29 ± 0.03 %ID/g, a tissue uptake at 1 h [1, 19] of 22.1 ± 2.92 %ID/g and a tissue uptake at 1 h ([1]; stomach, 1 h Blocked (co-injection of 2-PMPA, 0.5 mg), read-out: Stomach uptake) of 0.14 ± 0.06 %ID/g. It also gave a tissue uptake at 1 h [1, 20] of 0.68 ± 0.17 %ID/g, a tissue uptake at 1 h ([1]; testes, 1 h Blocked (co-injection of 2-PMPA, 0.5 mg), read-out: Testes uptake) of 0.28 ± 0.07 %ID/g and a tissue uptake at 1 h [1, 21] of 0.92 ± 0.29 %ID/g. The tissue uptake at 1 h ([1]; thyroid, 1 h Blocked (co-injection of 2-PMPA, 0.5 mg), read-out: Thyroid uptake) was 0.33 ± 0.08 %ID/g and the tissue uptake at 1 h [1, 22] was 4.53 ± 0.74 %ID/g.

Reference: patent US20260306680A1, “RADIOLABELED COMPOUNDS TARGETING THE PROSTATE-SPECIFIC MEMBRANE ANTIGEN” (PROVINCIAL HEALTH SERVICES AUTHORITY, priority 2022, published 2026)
